Experimental data taken from patent US8426340B2, “Plant growth enhancement with combinations of PESA and plant growth regulators” (Valent BioSciences Corporation, priority 2009, dated 2013).
Where a name gives a salt, the structure may show the parent alone.

Columns and labels:
Type in all cases: in vivo
cotton [1] = experiment: Pouch assay, root length of cotton seedlings (ABA)
Experimental: (§1) Seeds were placed in germination pouches consisting of germination paper hydrated with sterile water that was an insert in a gas-permeable 16×14 cm plastic pouch (CYG Pouch; Mega International, St. Paul, Minn.). In these examples, in pouch solution evaluation, PESA sodium salt or other active ingredients were added to the sterile water in the pouch. The pouches were arranged in a completely randomized block design in growth racks and placed in 19-liter polycarbonate food storage containers (Rubbermaid Commercial Products, Winchester, Va.). The sealed containers were held in an upright growth cabinet maintained at 25° C. with a 12 hour light: 12 hour dark photoperiod. When Abscisic acid was assayed in pouch studies, the pouches were first filled with sterile water to promote germination. The sterile water solutions were replaced after germination (4 days) and replaced with solutions containing ABA. After 6 days, the containers were removed from the growth cabinet, and the lengths of the roots and shoot were measured.

rice cv. Cheniere = experiment: Pouch assay, root length of rice seedlings; conditions: for effect on root length of rice seedlings / effect on main root length of rice cv. Cheniere: pouch solution; for effect on main root length of rice cv. Cheniere: combination: 3, 10, or 30 mg/liter PESA with 1 or 10 mg/liter trinexapac-ethyl
Experimental: as §1
In pouch solution evaluation, treatment with the gibberellin biosynthesis inhibitor trinexapac-ethyl on […].

lettuce [2] = experiment: Lettuce seed treatment, root growth; conditions: 25° C. in darkness, 3 days
Experimental: (§2) Seed was sieved with a screen of mesh size appropriate to remove broken seeds and small trash. Cracked or otherwise damaged seeds were removed. The seed was well mixed, and 50 g samples were weighed into small plastic trays. Seed treatment slurries were made by adding measured amounts of PESA or its salts and other AIs to sufficient water to bring them up to a standard volume, typically 2 ml. A fungicide (Maxim XL; Syngenta Agricultural Products, Greensboro, N.C.), a polymeric binder (CF-Clear; Becker-Underwood, Ames, Iowa), and a colorant (Color Coat Red; Becker-Underwood, Ames, Iowa) were also included in the slurry at label rates. A small aliquot of this slurry was applied to the seed using a Hege 11 coater (Wintersteiger, Salt Lake City, Utah) with a six-inch bowl at a slurry rate of 30 ounces per 100 lbs of seed. The slurry was deposited drop-wise on the spinning disk atomizer using a syringe.
(§3) After treatment, each seed sample was placed in plastic trays and dried at a room temperature for 20 to 60 minutes. The samples were then placed in small plastic bags. […]
To test the effect of chemical application on root growth, lettuce seed was treated with PESA salt (50 g/cwt), 6BA (1 g/cwt), or a combination of PESA salt and 6BA. Treated lettuce seed was grown at 25° C. in darkness, and root lengths were determined after 3 days.

lettuce [3] = experiment: Lettuce seed treatment, germination under thermodormancy conditions; conditions: 33° C. and continuous light
Experimental: as §2, §3
To test the effect of chemical application on thermodormancy, lettuce seed was treated with PESA salt (50 g/cwt), 6BA (1 g/cwt), or a combination of PESA salt and 6BA. Lettuce seed was then grown under conditions that promote thermodormancy (33° C. and continuous light) and final seedling germination was determined (Table 1).

cotton [4] = experiment: Pouch assay, root length of cotton seedlings (6BA); conditions: for root length (cm) of cotton: 6BA 0 mg/liter
Experimental: as §1

[5] = ACC alone 1, 10, or 100 mg/liter, combination: 3, 10, or 30 mg/liter PESA with 1, 10, or 100 mg/liter ACC, except 10 mg/liter PESA with 1 mg/liter ACC
[6] = PESA salt 50 g/cwt, 6BA 1 g/cwt, alone or in combination
[7] = seed treatment 50 g/cwt PESA salt, 0 g/cwt 6BA

## CC1=CC(=O)CC(C)(C)[C@@]1(O)/C=C/C(C)=C\C(=O)O [ABA, abscisic acid]
Cotton [1]; PESA salt 0 mg/liter, ABA 1 mg/liter
  root length (cm) of cotton: 10.4 cm
Cotton [1]; PESA salt 0 mg/liter, ABA 10 mg/liter
  root length (cm) of cotton: 10.0 cm
Cotton [1]; pouch solution, combination: PESA 3 or 10 mg/liter with ABA
  effect on root growth of cotton seedlings: inhibited root growth

## NC1(C(=O)O)CC1 [ACC, 1-aminocyclopropane carboxylic acid, reference compound]
Rice cv. Cheniere; Table 4, PESA salt 0 mg/liter, ACC 1 mg/liter
  root length (cm) of rice cv. Cheniere: 8.8 cm
Rice cv. Cheniere; Table 4, PESA salt 0 mg/liter, ACC 10 mg/liter
  root length (cm) of rice cv. Cheniere: 7.8 cm
Rice cv. Cheniere; Table 4, PESA salt 0 mg/liter, ACC 100 mg/liter
  root length (cm) of rice cv. Cheniere: 4.3 cm
Rice cv. Cheniere; [5]
  effect on root length of rice seedlings: reduced root length

## O=C(O)CCC(=O)NCCc1ccccc1 [PESA salt, N-(2-phenylethyl)succinamic acid]
Rice cv. Cheniere; Table 3, PESA salt 3 mg/liter, trinexapac-ethyl 0 mg/liter
  root length (cm) of rice cv. Cheniere: 12.1 cm
Rice cv. Cheniere; Table 3, PESA salt 10 mg/liter, trinexapac-ethyl 0 mg/liter
  root length (cm) of rice cv. Cheniere: 12.5 cm
Rice cv. Cheniere; Table 3, PESA salt 30 mg/liter, trinexapac-ethyl 0 mg/liter
  root length (cm) of rice cv. Cheniere: 13.1 cm
Rice cv. Cheniere; Table 4, PESA salt 3 mg/liter, ACC 0 mg/liter
  root length (cm) of rice cv. Cheniere: 9.7 cm
Rice cv. Cheniere; Table 4, PESA salt 10 mg/liter, ACC 0 mg/liter
  root length (cm) of rice cv. Cheniere: 9.8 cm
Rice cv. Cheniere; Table 4, PESA salt 30 mg/liter, ACC 0 mg/liter
  root length (cm) of rice cv. Cheniere: 9.4 cm
Rice cv. Cheniere; Table 5, PESA salt 3 mg/liter, AVG 0 mg/liter
  root length (cm) of rice cv. Cheniere: 11.4 cm
Rice cv. Cheniere; Table 5, PESA salt 30 mg/liter, AVG 0 mg/liter
  root length (cm) of rice cv. Cheniere: 12.3 cm
Rice cv. Cheniere; [5]
  effect on root length of rice seedlings: increased root length
Rice cv. Cheniere; PESA salt alone (AVG experiment)
  effect on root length of rice seedlings: increased root length
Rice cv. Cheniere
  effect on main root length of rice cv. Cheniere: increased root length in a dose-dependent manner
Cotton [1]; PESA salt 3 mg/liter, ABA 0 mg/liter
  root length (cm) of cotton: 11.9 cm
Cotton [1]; PESA salt 10 mg/liter, ABA 0 mg/liter
  root length (cm) of cotton: 11.1 cm
Lettuce [2]; [6]
  effect on lettuce root growth: no effect on lettuce root growth
Lettuce [2]; [7]
  Root length (cm): 3.8 cm
Lettuce [3]; [6]
  effect on lettuce germination: no effect
Lettuce [3]; [7]
  Germination (%): 14.9%
Cotton [4]; PESA salt 3 mg/liter
  root length (cm) of cotton: 9.8 cm
Cotton [4]; PESA salt 10 mg/liter
  root length (cm) of cotton: 11.9 cm
Cotton [4]; PESA salt 30 mg/liter
  root length (cm) of cotton: 13.0 cm
Cotton [4]; pouch solution, combination: 10 or 30 mg/liter PESA with 1 or 10 mg/liter 6BA
  effect on main root length of cotton seedlings: increased root length in a dose-dependent manner

## CCOC(=O)C1CC(=O)C(=C(O)C2CC2)C(=O)C1 (centres unmarked) [trinexapac-ethyl, reference compound]
Rice cv. Cheniere; Table 3, PESA salt 0 mg/liter, trinexapac-ethyl 1 mg/liter
  root length (cm) of rice cv. Cheniere: 10.9 cm
Rice cv. Cheniere; Table 3, PESA salt 0 mg/liter, trinexapac-ethyl 10 mg/liter
  root length (cm) of rice cv. Cheniere: 9.9 cm
Rice cv. Cheniere; Table 3, PESA salt 0 mg/liter, trinexapac-ethyl 100 mg/liter
  root length (cm) of rice cv. Cheniere: 5.0 cm
Rice cv. Cheniere
  effect on main root length of rice cv. Cheniere: negative effect on main root length
